Data from ChEMBL document CHEMBL3301464, “MMV Malaria Box anti-babesial screening”.

Tests used:
[1] = (§1) MMV: Anti-babesial activity assay. Parasite pRBCs at 1% parasitemia were cultivated in 100 ul with 96-well plates at 2.5% and 5% hematocrits. The parasites were cultivated in triplicate for 4 days without replacement of the medium for each concentration of the compound.; format: functional, Babesia caballi
[2] = as §1; format: functional, Babesia equi
[3] = as §1; format: functional, Babesia bigemina
[4] = as §1; format: functional, Babesia bovis

Compound	IC50 [1] [µM]	IC50 [2] [µM]	IC50 [3] [µM]	IC50 [4] [µM]
COc1cccc(Cn2c(Oc3ccccc3)nc3c2c(=O)n(C)c(=O)n3C)c1	5.7	> 25	10	10.3
CCOc1c(Cl)cc(CNCC(O)c2ccccc2)cc1OC (configuration not stated)	4.77	10	18.9	6.8
CCn1nc(-c2ccc(C(=O)OC)cc2)nc2c(=O)n(C)c(=O)nc1-2	0.09	5.06	7.89	12.8
CCOc1ccccc1CN1CCc2nc3cc(C(C)(C)C)nn3c(O)c2C1	0.068	10.1	9.87	20.2
Cc1cc(NC(=O)c2cccc(C(F)(F)F)c2)n(-c2nc(-c3ccc4c(c3)OCO4)cs2)n1	0.08	12.3	8.83	18
CN1CCN(c2ncnc3c2[nH]c2ccc(Cl)cc23)CC1	6.4	8.25	8.54	10
CC1(c2ccccc2)Nc2ccccc2-c2nc3ccccc3n21 (configuration not stated)	0.08	1	10	13.8
COc1cccc(C2(C)Nc3ccccc3-c3nc4ccccc4n32)c1 (configuration not stated)	1	10	25	13.9
CC(C)CNC(=O)c1c(N)n(CCc2ccccc2F)c2nc3ccccc3nc12	1	13.3	7.67	10
CC(C)(C)CC(C)(C)NCC(O)COc1ccc(Cl)cc1Cl (configuration not stated)	0.071	0.53	0.32	0.083
Cc1cccc(-n2ncc3c(O)nc(-n4nc(C)cc4NC(=O)c4cc5ccccc5o4)nc32)c1	0.073	0.47	0.41	4.48
O=C(Nc1ccc(Br)cc1)Nc1cccc(Cl)c1	> 25	9.12	12.8	7.66
COc1cccc(O)c1CN1CCC2(CCCN(Cc3ccc(F)cc3)C2)C1 (configuration not stated)	3.09	4.6	10	2.45
COc1cccc(Nc2nc(NCCO)c3ccccc3n2)c1	1.3	4.09	1	6.99
COc1ccc2nc(C)cc(Nc3ccc(Cl)cc3)c2c1	> 25	4.29	8.15	2.4
O=C(NC1CCN(Cc2ccccc2)CC1)c1cc(-c2ccncc2)nc2ccc(Cl)cc12	0.076	0.39	7.3	3.99
COc1ccc2nc(C)cc(Nc3cccc(O)c3)c2c1	> 25	4.19	25	13.4
COc1cc2cc(C(=O)Nc3ccccc3)c(N)nc2cc1OC	6.22	3.04	21.1	0.86
CN(C)CCCNCc1ccc(-c2ccc(F)c(Cl)c2)o1	0.69	4.09	4.61	2.45
COc1ccc2nc(N)nc(C)c2c1	4.19	3.03	15.6	7.23
Cc1[nH]c(-c2ccc(F)cc2)cc1C(=O)NC1CCN(Cc2ccccc2)CC1	8.21	0.58	4.29	0.303

Compound	IC50 [1] [µM]	IC50 [2] [µM]	IC50 [3] [µM]	IC50 [4] [µM]
O=C(NC(c1ccccc1)c1ccc2cccnc2c1O)c1ccccc1 (configuration not stated)	0.55	0.47	0.93	1
CCC(=O)Nc1nnc(Cc2ccc(OC)c(OC)c2)s1	4.65	12.4	10	1.29
CC(=O)Nc1nnc(SCc2c(C)cc(C(C)(C)C)cc2C)s1	12.8	15.8	11.4	> 25
O=C(Nc1ccc(CN2CCOCC2)cc1)c1ccc(-c2cc(Cl)ccc2Cl)o1	0.069	10	10	25
Cc1ccc(CSCc2ccc(C(=O)NC3CC3)o2)cc1	12.9	4.48	15.2	8.31
CN1CCN(c2c3c(c(C#N)c4nc5ccccc5n24)CCC3)CC1	> 25	8.25	19.2	13.3
Oc1ccc(Cl)cc1CNc1nc2ccccc2[nH]1	8.03	4.77	5.06	5.38
COc1cccc(C(=O)Nc2ccc(-c3nc4ccccc4[nH]3)cc2)c1	4.89	7.38	4.77	1
COCCn1c(C)nc2ccccc2c1=O	13.9	12.9	14.7	14.3
O=C(Nc1cccc(-c2nc3ccccc3[nH]2)c1)c1cccc(NC(=O)c2ccco2)c1	5.21	3.7	6.8	3.32
O=C(NC1CCN(Cc2ccccc2)CC1)c1cc(-c2cccnc2)nc2ccc(Cl)cc12	0.071	0.48	13.9	> 25
COc1nc(Nc2ccc(C(C)C)cc2)nc(OC)n1	0.076	12.3	10.1	1.03
CCN(CC)CCNc1ncnc2c1[nH]c1ccc(Br)cc12	4.19	4.6	3.03	1
CCOc1cccc(C(=O)Nc2ccc(-c3nc4ccccc4[nH]3)cc2)c1	0.075	10	5.64	17.2
Cc1cc(NC(=O)c2ccc(-c3ccccc3)cc2)no1	0.076	12.4	8.54	0.24
COc1cccc(-c2nn(C)c3sc(C(=O)NCCN4CCN(c5ccccc5F)CC4)cc23)c1	6.8	5.93	10	2.06
O=C(Nc1ccc(N2CCN(Cc3ccccc3)CC2)cc1)c1cccs1	0.08	3.32	8.47	1.87
O=C(Nc1ccc(N2CCCCC2)c(Cl)c1)c1ccc(Br)o1	13.9	18.7	17.7	11.9
CCOc1cc2c(cc1OCC)C(c1cc(C)c(O)c(C)c1)NCC2 (configuration not stated)	21.1	3.7	19.2	1
O=C1CC(O)(C(F)(F)C(F)(F)F)Oc2ccccc21 (configuration not stated)	0.8	0.65	16.3	> 25
O=C(Nc1cccc(C(F)(F)F)c1)c1cc(Cl)ccc1O	5.21	5.1	3.71	0.82

Compound	IC50 [1] [µM]	IC50 [2] [µM]	IC50 [3] [µM]	IC50 [4] [µM]
CC1CC(C)CN(C(=O)c2ccc(Cl)cc2Cl)C1 (configuration not stated)	3.9	19.4	14.7	6.8
OC(CNC1CCCC1)Cn1c2ccccc2c2ccccc21 (configuration not stated)	3.53	3.9	17.3	1
Cc1ccc(NC(=O)Nc2cccc(Cl)c2)cc1F	0.074	14.3	10	11.1
CCOc1ccc(/C=C/c2nc(=O)c3ccccc3o2)cc1	19.4	12.5	3.03	1
O=C(Nc1ccccc1O)c1ccc(-c2ccc(Cl)cc2Cl)o1	6.51	12.5	19	4.65
CCOc1ccc(-c2nc(NC(=O)c3cccc(S(C)(=O)=O)c3)sc2C)cc1	11.9	17.7	15	4.48
O=C(NCc1ccco1)C1CCN(S(=O)(=O)c2ccc(Br)cc2)CC1	> 25	14.3	> 25	17
Clc1ccc2[nH]c3c(NCCCN4CCOCC4)ncnc3c2c1	1	7.38	1.1	7.75
Oc1c(CN2CCN(c3ccccc3F)CC2)cc(Br)c2cccnc12	14.7	12.8	4.6	3.32
CCCCc1c(C)nc2c(OC)cccc2c1O	5.64	14	15.3	10
COc1ccc(C2Sc3ccccc3N=C3C2=C(O)c2ccccc23)cc1 (configuration not stated)	7.09	15.8	4.09	13.9
CCOC(=O)C1CCN(C(=O)CN2C(=O)c3ccccc3C2c2c[nH]c3ccccc23)CC1 (configuration not stated)	5.35	4.19	25	> 25
CCCN(CCC)CCCNC(=O)c1cc2c(-c3ccc(OC)c(OC)c3)nn(C)c2s1	5.5	19.4	3.32	11
Cc1cc(N2CCN(C3CCCC3)CC2)n2c(nc3ccccc32)c1C#N	0.38	0.065	0.1	0.75
O=c1c2c([nH]c3ccccc13)CCCC2	4.09	4.27	5.93	2.45
CCCCOc1ccc(C(=O)Nc2cc(C)on2)cc1	0.083	6.99	25	21.2
CC1CCCCN1CCCNC(=O)c1ccc2c(c1)sc1nc(-c3ccc(F)cc3)cn12 (configuration not stated)	8.54	0.1	3.9	0.19
CCc1ccc(Nc2cc(C)nc3nc(C)nn23)cc1	0.074	10	10	13.5
CCN(CC)S(=O)(=O)c1ccc(-c2csc(Nc3ccc(C)c(C)c3)n2)cc1	0.08	14.2	10	11.9
Cc1c(C)n(CC(O)CNC2CCCCC2C)c2ccccc12 (configuration not stated)	2.49	4.76	4.09	0.1
CCCCN(CCCC)S(=O)(=O)c1ccc(NC(=O)c2ccco2)cc1	3.81	14.2	25	10
